Patent publication US9351965B2, “Indazole derivatives useful as ERK inhibitors” (Merck Sharp & Dohme Corp., priority 2010, dated 2016)

Molecular target: fully phosphorylated, active Mouse ERK2 protein (Mus musculus (Mouse), UniProt P63085)
Test: Active ERK2 (aERK) IMAP assay
Assay type: biochemical
Settings: IMAP fluorescence polarization; 30 μM ATP; 30 minute pre-incubation

fully phosphorylated, active Mouse ERK2 protein, sequence (P63085 whole entry): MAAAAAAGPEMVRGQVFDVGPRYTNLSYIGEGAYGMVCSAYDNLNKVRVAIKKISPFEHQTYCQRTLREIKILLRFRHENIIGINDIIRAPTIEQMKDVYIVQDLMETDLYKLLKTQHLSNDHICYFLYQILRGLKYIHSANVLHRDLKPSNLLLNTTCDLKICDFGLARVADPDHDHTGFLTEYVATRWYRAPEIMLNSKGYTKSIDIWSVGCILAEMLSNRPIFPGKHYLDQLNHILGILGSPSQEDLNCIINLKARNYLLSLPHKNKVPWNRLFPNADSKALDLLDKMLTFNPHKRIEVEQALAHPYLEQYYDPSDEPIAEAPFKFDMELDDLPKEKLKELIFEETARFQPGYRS

SMILES | IC50 [nM]
Cc1cc(-c2n[nH]c3ccc(C(=O)N[C@H]4CCC[C@@](O)(Cn5cc6cccc(F)c6n5)C4)cc23)ccn1 (relative stereo) [compound 102, N-[trans-3-[(7-fluoro-2H-indazol-2-yl)methyl]-3-hydroxycyclohexyl]-3-(2-methyl-4-pyridinyl)-1H-indazole-5-carboxamide] | 704
Cn1cc2cc(-c3n[nH]c4ccc(C(=O)N[C@@H]5CCC[C@](O)(Cn6cccn6)C5)cc34)ccc2n1 (relative stereo) [compound 59, N-[trans-3-hydroxy-3-(1H-pyrazol-1-ylmethyl)cyclohexyl]-3-(2-methyl-2H-indazol-5-yl)-1H-indazole-5-carboxamide] | 67.4
Cc1cc(-c2n[nH]c3ccc(C(=O)NC4CCCC(Cn5cc6cc(F)ccc6n5)C4)cc23)ccn1 (mixture of isomers) [compound 124, N-[cis/trans-3-[(5-fluoro-2H-indazol-2-yl)methyl]cyclohexyl]-3-(2-methyl-4-pyridinyl)-1H-indazole-5-carboxamide] | 264
Cc1cc(-c2n[nH]c3ccc(C(=O)NC4CCCC(CO)(Cc5ccc(F)cc5)C4)cc23)ccn1 (stereo not shown) [compound 135, N-[3-[(4-fluorophenyl)methyl]-3-(hydroxymethyl)cyclohexyl]-3-(2-methyl-4-pyridinyl)-1H-indazole-5-carboxamide] | 357
O=C(NC1CCCC(Cn2cccn2)C1)c1ccc2[nH]nc(-c3ccc4nccn4c3)c2c1 (stereo not shown) [compound 110, 3-imidazo[1,2-a]pyridin-6-yl-N-[3-(1H-pyrazol-1-ylmethyl)cyclohexyl]-1H-indazole-5-carboxamide] | 74.6
Cc1cc(-c2n[nH]c3ccc(C(=O)N[C@H]4CCC[C@@](O)(Cn5ncc6ccc(F)cc65)C4)cc23)ccn1 (relative stereo) [compound 100, N-[trans-3-[(6-fluoro-1H-indazol-1-yl)methyl]-3-hydroxycyclohexyl]-3-(2-methyl-4-pyridinyl)-1H-indazole-5-carboxamide] | 1000
Cc1cc(-c2n[nH]c3ccc(C(=O)NC4CCCC(Cn5ncc6cnccc65)C4)cc23)ccn1 (stereo not shown) [compound 119, 3-(2-methyl-4-pyridinyl)-N-[3-(1H-pyrazolo[4,3-c]pyridin-1-ylmethyl)cyclohexyl]-1H-indazole-5-carboxamide] | 530
Cc1nc2ccc(-c3n[nH]c4ccc(C(=O)N[C@@H]5CCC[C@](O)(Cc6c(F)cccc6F)C5)cc34)cn2n1 [compound 21, N-[3-(S)-[(2,6-difluorophenyl)methyl]-3-hydroxy-1(R)-cyclohexyl]-3-(2-methyl[1,2,4]triazolo[1,5-a]pyridin-6-yl)-1H-indazole-5-carboxamide] | 20.9
Cc1cc(-c2n[nH]c3ccc(C(=O)NC4CCCC(CO)(Oc5ccccc5)C4)cc23)ccn1 (stereo not shown) [compound 41, N-[3-(hydroxymethyl)-3-phenoxycyclohexyl]-3-(2-methyl-4-pyridinyl)-1H-indazole-5-carboxamide] | 98.9
Cc1cc(-c2n[nH]c3ccc(C(=O)NC4CCCC(CO)(Oc5cccc(F)c5)C4)cc23)ccn1 (single isomer, unassigned) [compound 45, N-[3-(3-fluorophenoxy)-3-(hydroxymethyl)cyclohexyl]-3-(2-methyl-4-pyridinyl)-1H-indazole-5-carboxamide] | 187
Cc1cc(-c2n[nH]c3ccc(C(=O)NC4CCCC(Cn5cnc6ncccc65)C4)cc23)ccn1 (stereo not shown) [compound 117, N-[3-(1H-imidazo[4,5-b]pyridin-1-ylmethyl)cyclohexyl]-3-(2-methyl-4-pyridinyl)-1H-indazole-5-carboxamide] | 86.5
Cc1cc(-c2n[nH]c3ccc(C(=O)NC4CCCC(Oc5ccccc5F)C4)cc23)ccn1 (single isomer, unassigned) [compound 28, N-[3-(2-fluorophenoxy)cyclohexyl]-3-(2-methyl-4-pyridinyl)-1H-indazole-5-carboxamide] | 113
CCOC(=O)C1(Cc2ccccc2F)CCCC(NC(=O)c2ccc3[nH]nc(-c4ccnc(C)c4)c3c2)C1 (mixture of isomers) [compound 128, ethyl cis/trans-1-[(2-fluorophenyl)methyl]-3-[[[3-(2-methyl-4-pyridinyl)-1H-indazol-5-yl]carbonyl]amino]cyclo-hexanecarboxylate] | 1000
Cc1cc(-c2n[nH]c3ccc(C(=O)N[C@@H]4CCC[C@](O)(Cn5c(C(F)(F)F)nc6ccccc65)C4)cc23)ccn1 (relative stereo) [compound 67, N-[trans-3-hydroxy-3-[[2-(trifluoromethyl)-1H-benzimidazol-1-yl]methyl]cyclohexyl]-3-(2-methyl-4-pyridinyl)-1H-indazole-5-carboxamide] | 436
Cc1cc(-c2n[nH]c3ccc(C(=O)N[C@H]4CCC[C@@](O)(Cn5cc(C#N)c6ccccc65)C4)cc23)ccn1 (relative stereo) [compound 95, N-[trans-3-[(3-cyano-1H-indol-1-yl)methyl]-3-hydroxycyclohexyl]-3-(2-methyl-4-pyridinyl)-1H-indazole-5-carboxamide] | 1000
Cc1cc(-c2n[nH]c3ccc(C(=O)NC4CCCC(Oc5ccc(F)cc5F)C4)cc23)ccn1 (single isomer, unassigned) [compound 37, N-[3-(2,4-difluorophenoxy)cyclohexyl]-3-(2-methyl-4-pyridinyl)-1H-indazole-5-carboxamide] | 128

SMILES | IC50 [nM]
O=C(NC1CCCC(O)(Cc2ccccc2F)C1)c1ccc2[nH]nc(-c3ccc4ncsc4c3)c2c1 (single isomer, unassigned) [compound 11, 3-(6-benzothiazolyl)-N-[3-[(2-fluorophenyl)methyl]-3-hydroxycyclohexyl]-1H-indazole-5-carboxamide] | 264
Cc1cc(-c2n[nH]c3ccc(C(=O)NC4CCCC(Cn5c(=O)ccc6ccccc65)C4)cc23)ccn1 (stereo not shown) [compound 121, 3-(2-methyl-4-pyridinyl)-N-[3-[(2-oxo-1(2h)-quinolinyl)methyl]cyclohexyl]-1H-indazole-5-carboxamide] | 37.2
Cc1cc(-c2n[nH]c3ccc(C(=O)NC4CCCC(O)(C(=O)c5ccccc5)C4)cc23)ccn1 (stereo not shown) [compound 53, N-(3-benzoyl-3-hydroxycyclohexyl)-3-(2-methyl-4-pyridinyl)-1H-indazole-5-carboxamide] | 258
Cc1cc(-c2n[nH]c3ccc(C(=O)NC4CCCC(N)(Cc5ccccc5F)C4)cc23)ccn1 (stereo not shown) [compound 152, N-[3-amino-3-[(2-fluorophenyl)methyl]cyclohexyl]-3-(2-methyl-4-pyridinyl)-1H-indazole-5-carboxamide] | 514
Cc1cc(-c2n[nH]c3ccc(C(=O)NC4CCCC(CN5C(=O)Cc6ccccc65)C4)cc23)ccn1 (stereo not shown) [compound 120, N-[3-[(2,3-dihydro-2-oxo-1H-indol-1-yl)methyl]cyclohexyl]-3-(2-methyl-4-pyridinyl)-1H-indazole-5-carboxamide] | 17.4
CC(C)Oc1cc(-c2n[nH]c3ccc(C(=O)NN4CCCC4CCc4ccccc4)cc23)ccn1 (stereo not shown) [compound 146, 3-[2-(1-methylethoxy)-4-pyridinyl]-N-[2-(2-phenylethyl)-1-pyrrolidinyl]-1H-indazole-5-carboxamide] | 1000
Cc1cc(-c2n[nH]c3ccc(C(=O)N[C@@H]4CCC[C@](O)(Cn5ncc6cnccc65)C4)cc23)ccn1 (relative stereo) [compound 87, N-[trans-3-hydroxy-3-(1H-pyrazolo[4,3-c]pyridin-1-ylmethyl)cyclohexyl]-3-(2-methyl-4-pyridinyl)-1H-indazole-5-carboxamide] | 410
Cc1cc(-c2n[nH]c3ccc(C(=O)N[C@@H]4CCC[C@@](O)(Cn5ncc6cccnc65)C4)cc23)ccn1 (relative stereo) [compound 79, N-[cis-3-hydroxy-3-(1H-pyrazolo[3,4-b]pyridin-1-ylmethyl)cyclohexyl]-3-(2-methyl-4-pyridinyl)-1H-indazole-5-carboxamide] | 8.6
Cn1cc2cc(-c3n[nH]c4ccc(C(=O)NC5CCCC(Cn6ccnc6)C5)cc34)ccc2n1 (stereo not shown) [compound 108, N-[3-(1H-imidazol-1-ylmethyl)cyclohexyl]-3-(2-methyl-2H-indazol-5-yl)-1H-indazole-5-carboxamide] | 29.3
Cc1cc(-c2n[nH]c3ccc(C(=O)NC4CCCC(O)(Cc5ccccc5F)C4)cc23)ccn1 (single isomer, unassigned) [compound 3, N-[3-[(2-fluorophenyl)methyl]-3-hydroxycyclo-hexyl]-3-(2-methyl-4-pyridinyl)-1H-indazole-5-carboxamide] | 7.6
Cc1cc(-c2n[nH]c3ccc(C(=O)NC4CCCC(CO)(Cc5ccccc5F)C4)cc23)ccn1 (mixture of isomers) [compound 130, N-[cis/trans-3-[(2-fluorophenyl)methyl]-3-(hydroxymethyl)cyclohexyl]-3-(2-methyl-4-pyridinyl)-1H-indazole-5-carboxamide] | 1000
Cc1nc2ccc(-c3n[nH]c4ccc(C(=O)NC5CCCC(Cn6c(C)nc7ccccc76)C5)cc34)cc2s1 (stereo not shown) [compound 127, N-[3-[(2-methyl-1H-benzimidazol-1-yl)methyl]cyclohexyl]-3-(2-methyl-6-benzothiazolyl)-1H-indazole-5-carboxamide] | 1000
O=C(NC1CCCC(Cn2cncn2)C1)c1ccc2[nH]nc(-c3ccc4nccn4c3)c2c1 (stereo not shown) [compound 111, 3-imidazo[1,2-a]pyridin-6-yl-N-[3-(1H-1,2,4-triazol-1-ylmethyl)cyclohexyl]-1H-indazole-5-carboxamide] | 77.2
Cc1cc(-c2n[nH]c3ccc(C(=O)N[C@H]4CCC[C@@](O)(Cn5cc6c(F)cccc6n5)C4)cc23)ccn1 (relative stereo) [compound 97, N-[trans-3-[(4-fluoro-2H-indazol-2-yl)methyl]-3-hydroxycyclohexyl]-3-(2-methyl-4-pyridinyl)-1H-indazole-5-carboxamide] | 1000
Cc1cc(-c2n[nH]c3ccc(C(=O)N[C@@H]4CCC[C@@](O)(Cn5c(C)nc6cnccc65)C4)cc23)ccn1 (relative stereo) [compound 77, N-[cis-3-hydroxy-3-[(2-methyl-1H-imidazo[4,5-c]pyridiN-1-yl)methyl]cyclohexyl]-3-(2-methyl-4-pyridinyl)-1H-indazole-5-carboxamide] | 1000
